The text below walks through data of US20220392580A1, “COMPUTATIONAL MODEL TRAINED TO PREDICT INTERACTING PAIRS BASED ON WEAKLY-CORRELATED FEATURES” (Cornell University, priority 2016, published 2022).

Where a name gives a salt, the structure may show the parent alone. A value given as a limit tells only on which side of the number the result lay.

For one assay, the system named is breast cancer patients. The settings on record: recent clinical trials; cited from earlier work.
Assay [1] concerns the target T1, DRD2L (Homo sapiens, UniProt P14416). The note with it: another measure of DRD2L activation.
The subject of assay [2] is other drug targets of FDA-approved cancer therapies. The experiment in a line: interaction profiling.
Assay [3] deals with nuclear hormone receptors. Kind of assay: interaction profiling.
For assay [4], the system named is D2-like (DRD2/3/4) subfamily of dopamine receptors. The note with it: arrestin recruitment GPCR profiling. How it is done: (§1) To test the target prediction, in vitro profiling of GPCR activity using a hetereologous reporter assay for arrestin recruitment, a hallmark of GPCR activation was performed.
Assay [5] relates to short and long isoforms of DRD2. The note with it: arrestin recruitment GPCR profiling. As to the method: as §1
For orientation: Recruitment of arrestin is a read-out of receptor activation apart from second messengers.

Assay [6] has as its system D1-like (DRD1/5) subfamily of dopamine receptors. The note with it: arrestin recruitment GPCR profiling. How it is done:
as §1

The next assay has as its target DRD4 (Homo sapiens, UniProt P21917). The note with it: arrestin recruitment GPCR profiling; potency relative to DRD2 and DRD3. How it is done:
as §1

Assay [7] concerns the target T1, DRD2L. The experiment in a line: antagonism of arrestin recruitment to DRD2L, Gaddam/Schild EC50 shift analysis. It counts as cell-based. More on the design: expressed in transfected cells. The note with it: dopamine completely reverses dose-dependent antagonism of up to 100 uM ONC201. As to the method:
as §1

The next assay has as its system other GPCRs. The experiment in a line: in vitro profiling of GPCR activity, heterologous reporter assay for arrestin recruitment. In kind it is cell-based. The note with it: under the evaluated conditions. How it is done: as §1
On the technique in general: Reporter assays use an easily measured gene product as a stand-in for the process of interest.

T1 sequence (P14416 whole entry): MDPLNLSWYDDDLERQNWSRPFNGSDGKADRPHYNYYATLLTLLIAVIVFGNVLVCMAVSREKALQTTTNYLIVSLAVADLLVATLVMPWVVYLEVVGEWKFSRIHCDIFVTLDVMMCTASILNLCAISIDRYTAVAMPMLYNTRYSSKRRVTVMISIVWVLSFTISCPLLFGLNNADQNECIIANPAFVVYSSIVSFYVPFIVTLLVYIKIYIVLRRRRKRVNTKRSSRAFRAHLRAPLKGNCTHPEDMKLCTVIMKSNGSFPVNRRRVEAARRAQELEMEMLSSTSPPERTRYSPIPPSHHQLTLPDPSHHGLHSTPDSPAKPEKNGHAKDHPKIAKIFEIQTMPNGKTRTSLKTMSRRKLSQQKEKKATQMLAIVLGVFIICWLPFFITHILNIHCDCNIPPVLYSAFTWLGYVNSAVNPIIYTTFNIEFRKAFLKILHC
DRD4, sequence (P21917 whole entry): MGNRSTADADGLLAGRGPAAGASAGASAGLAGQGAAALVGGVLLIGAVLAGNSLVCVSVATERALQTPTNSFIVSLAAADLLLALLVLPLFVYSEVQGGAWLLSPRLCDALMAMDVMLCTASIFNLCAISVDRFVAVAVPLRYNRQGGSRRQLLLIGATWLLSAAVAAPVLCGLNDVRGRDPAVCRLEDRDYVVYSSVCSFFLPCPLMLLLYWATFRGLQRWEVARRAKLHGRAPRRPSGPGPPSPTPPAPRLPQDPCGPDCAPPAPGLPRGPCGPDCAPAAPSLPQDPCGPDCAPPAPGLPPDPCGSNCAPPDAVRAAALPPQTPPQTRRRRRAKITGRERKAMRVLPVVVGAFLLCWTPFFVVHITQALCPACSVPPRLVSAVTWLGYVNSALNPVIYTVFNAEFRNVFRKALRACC

For `C=C1C[C@@H]2CC[C@@]34C[C@H]5O[C@H]6[C@@H](O3)[C@H]3O[C@H](CC[C@@H]3O[C@H]6[C@H]5O4)CC(=O)C[C@@H]3[C@@H](OC)[C@@H](C[C@H](O)CN)O[C@H]3C[C@H]3O[C@@H](CC[C@@H]1O2)C[C@@H](C)C3=C` [Eribulin, Eribulin mesylate], the “patients showing any detectable response after treatment” value in the assay on breast cancer patients is under 50%.

With `Cc1ccccc1CN1C(=O)C2=C(CCN(Cc3ccccc3)C2)N2CCN=C12` [ONC201], the “cAMP modulation in response to compound” value on DRD2L [1] is given as “Confirmatory results”. Moreover, the “interactions with other drug targets of FDA-approved cancer therapies” value in [2] is “no significant interactions”. The “interactions with the kinome” value in the assay with the kinome is on record as “no significant interactions”. The “interactions with nuclear hormone receptors” value in assay [3] was “no significant interactions”. The “antagonism of D2-like dopamine receptors” value in assay [4] is recorded as “selectively antagonizes”. Also, in assay [5], the “antagonism of DRD2 short and long isoforms” value is recorded as “antagonized”. In assay [6], the “antagonism of D1-like dopamine receptors” value was “but not D1-like (DRD1/5)”. The “antagonism of DRD4” value at DRD4 is reported as “weaker potency”. Also, the “mode of antagonism of DRD2L (reversal by dopamine)” value at DRD2L [7] was “direct, competitive antagonism”. Also, the “antagonism of other GPCRs” value with other GPCRs is reported as “no observed antagonism”.
